Assay results reported in the supplement of paper PMC10307832.

What was measured:
Assay in all cases: relative viability (nuclei count vs DMSO), 5 days (fraction); higher = more cells survive
BAY61-3606 + Linsitinib = compound: COC1=C(C=C(C=C1)C2=CC3=NC=CN3C(=N2)NC4=C(C=CC=N4)C(=O)N)OC [BAY61-3606] + C[C@]1(O)C[C@@H](c2nc(-c3ccc4ccc(-c5ccccc5)nc4c3)c3c(N)nccn32)C1 [Linsitinib] (partner 1 µM)
How it was run: (§1)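 Relative viability equals treated-well nuclei counts divided by vehicle-well nuclei counts. Counts came from 4× images of lung cancer cell lines grown in 1536-well plates for 5 days after pin-tool dosing on the day after seeding. Dosing used one drug alone or a fixed anchor-drug dose plus five library-drug doses (not always all listed) in √10 steps, and values are medians of duplicate plates.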

BAY61-3606 + Crizotinib = compound: COC1=C(C=C(C=C1)C2=CC3=NC=CN3C(=N2)NC4=C(C=CC=N4)C(=O)N)OC [BAY61-3606] + C[C@@H](Oc1cc(-c2cnn(C3CCNCC3)c2)cnc1N)c1c(Cl)ccc(F)c1Cl [Crizotinib] (partner 1 µM)
How it was run: as §1

BAY61-3606 + Foretinib = compound: COC1=C(C=C(C=C1)C2=CC3=NC=CN3C(=N2)NC4=C(C=CC=N4)C(=O)N)OC [BAY61-3606] + COc1cc2c(Oc3ccc(NC(=O)C4(C(=O)Nc5ccc(F)cc5)CC4)cc3F)ccnc2cc1OCCCN1CCOCC1 [Foretinib] (partner 0.25 µM)
How it was run: as §1

Doxorubicin + Pictilisib = compound: COc1cccc2c1C(=O)c1c(O)c3c(c(O)c1C2=O)C[C@@](O)(C(=O)CO)C[C@@H]3O[C@H]1C[C@H](N)[C@H](O)[C@H](C)O1 [Doxorubicin] + CS(=O)(=O)N1CCN(Cc2cc3nc(-c4cccc5[nH]ncc45)nc(N4CCOCC4)c3s2)CC1 [Pictilisib] (partner 1 µM)
How it was run: as §1

Cell Line | relative viability (BAY61-3606 + Linsitinib; first compound 0.02 µM) | relative viability (BAY61-3606 + Linsitinib; first compound 0.06325 µM) | relative viability (BAY61-3606 + Linsitinib; first compound 0.2 µM) | relative viability (BAY61-3606 + Linsitinib; first compound 0.6325 µM) | relative viability (BAY61-3606 + Linsitinib; first compound 2 µM) | relative viability (BAY61-3606 + Crizotinib; first compound 0.02 µM) | relative viability (BAY61-3606 + Crizotinib; first compound 0.06325 µM) | relative viability (BAY61-3606 + Crizotinib; first compound 0.2 µM) | relative viability (BAY61-3606 + Crizotinib; first compound 0.6325 µM) | relative viability (BAY61-3606 + Crizotinib; first compound 2 µM) | relative viability (BAY61-3606 + Foretinib; first compound 0.02 µM) | relative viability (BAY61-3606 + Foretinib; first compound 0.06325 µM) | relative viability (BAY61-3606 + Foretinib; first compound 0.2 µM) | relative viability (BAY61-3606 + Foretinib; first compound 0.6325 µM) | relative viability (BAY61-3606 + Foretinib; first compound 2 µM) | relative viability (Doxorubicin + Pictilisib; first compound 0.001 µM) | relative viability (Doxorubicin + Pictilisib; first compound 0.003162 µM) | relative viability (Doxorubicin + Pictilisib; first compound 0.01 µM) | relative viability (Doxorubicin + Pictilisib; first compound 0.03162 µM) | relative viability (Doxorubicin + Pictilisib; first compound 0.1 µM)
SW 1573 | 0.821 | 0.762 | 0.803 | 0.674 | 0.625 | 0.802 | 0.65 | 0.745 | 0.785 | 0.588 | 1.18 | 0.872 | 0.81 | 0.839 | 0.757 | 0.512 | 0.46 | 0.424 | 0.332 | 0.258
HARA | 1.03 | 1.01 | 0.972 | 1.06 | 0.931 | 1.08 | 1.08 | 1.06 | 1.07 | 0.892 | 0.926 | 0.76 | 0.832 | 0.887 | 0.631 | 0.444 | 0.439 | 0.434 | 0.357 | 0.294
NCI-H2126 | 0.757 | 0.687 | 0.742 | 0.749 | 0.691 | 1.06 | 1.01 | 1 | 0.973 | 0.893 | 1.4 | 1.21 | 1.06 | 1.13 | 0.959 | 0.494 | 0.523 | 0.501 | 0.49 | 0.517
NCI-H1563 | 1.37 | 1.42 | 1.2 | 1.12 | 1.03 | 0.906 | 0.868 | 0.882 | 0.948 | 0.758 | 1.03 | 0.99 | 0.893 | 0.931 | 0.847 | 0.585 | 0.602 | 0.62 | 0.541 | 0.532
NCI-H1915 | 1.1 | 1.06 | 1.05 | 1.06 | 0.854 | 0.899 | 0.914 | 0.857 | 0.868 | 0.707 | 1.06 | 1.09 | 1.07 | 1.13 | 0.613 | 0.854 | 1.01 | 0.954 | 1.06 | 1.03
PC-14 | 1.05 | 1.04 | 0.916 | 0.968 | 0.826 | 0.855 | 0.803 | 0.865 | 0.974 | 0.757 | 0.992 | 0.957 | 0.911 | 0.963 | 0.931 | 0.619 | 0.926 | 0.809 | 0.568 | 0.663
COR-L23 | 1.02 | 1.07 | 0.957 | 0.903 | 0.641 | 0.697 | 0.67 | 0.527 | 0.667 | 0.509 | 0.999 | 0.944 | 0.963 | 0.992 | 0.865 | 0.928 | 1.04 | 0.651 | 0.199 | 0.121
